Measurements published in patent publication KR20080021588A, “메카노 성장 인자 펩티드 및 이들의 용도” (유씨엘 비즈니스 피엘씨, priority 2005, dated 2006).
Where no end group is shown, it is not given here.

Experiments:
단핵성 근육모세포 (수반 세포) = assay: Biological activity: induction of mononucleated myoblast replication (Alamar Blue); type: cell-based; parameters: key to biological activity score (scale 0 to 3): 0: 6시간에서 측정가능한 세포 수 증가 없음; 1: 4시간에서 유의한 세포 수 증가; 2시간에서 유의한 세포 수 증가; 3: 1시간에서 유의한 세포 수 증가; conditions: cell number by Alamar Blue
C2C12 근육 세포 [1] = assay: C2C12 cell proliferation assay (BrdU incorporation); type: cell-based, mouse; conditions: 0.1, 1, 10 and 100 ng/ml; 500 cells/well; 24 h stimulation, 5 h BrdU
mdx 마우스의 근이영양성 근육 = assay: Tetanic force of dystrophic muscle after intramuscular injection in mdx mice; type: in vivo, mouse; conditions: i.m. twice weekly for 3 weeks
경색된 양 심장 = assay: Cardioprotection after myocardial infarction in sheep (ejection fraction by echocardiography); type: in vivo; conditions: intracoronary injection 15 min after infarction, day 6 vs day before procedure
래트 기관형적 해마 배양물 = assay: In vitro neuroprotection against TBH oxidative stress in organotypic hippocampal slices (PI staining); type: cell-based, Wistar rat; conditions: 100 ng/ml
뇌 허혈의 게르빌루스쥐 모델 = assay: Neuroprotection in gerbil model of brain ischaemia (surviving CA1 neurons); type: in vivo, Mongolian gerbil; conditions: 25 µg injection, 7 days after ischaemic insult
정상 두개안면 (교근) 초대 배양물 = assay: Myogenic progenitor (desmin-positive) cell proliferation, normal craniofacial muscle primary culture; type: cell-based, human; conditions: normal craniofacial (masseter); peptide 10 ng/ml alone; untreated 49.8±2.4%
정상 하지 (사두근) 초대 배양물 = assay: Myogenic progenitor (desmin-positive) cell proliferation, normal limb muscle primary culture; type: cell-based, human; conditions: normal limb (quadriceps); peptide 10 ng/ml alone; untreated 38.4±2.5%
[2] = tested on: 선천성 근이영양증 (CMD)에서 유래된 초대 배양물; assay: Myogenic progenitor (desmin-positive) cell proliferation, CMD muscle primary culture; type: cell-based, human; conditions: peptide 10 ng/ml alone, untreated 10.4±1.7%
ALS 사지 = assay: Myogenic progenitor (desmin-positive) cell proliferation, ALS muscle primary culture; type: cell-based, human; conditions: peptide 10 ng/ml alone, untreated 4.8±1.1%
FSHD 사지 = assay: Myogenic progenitor (desmin-positive) cell proliferation, FSHD muscle primary culture; type: cell-based, human; conditions: peptide 10 ng/ml alone, untreated 11.7±1.3%
초대 인간 근육 세포 배양물 = assay: Creatine phosphokinase (CPK) assay of myogenic differentiation / myotube formation; type: cell-based, human; conditions: peptide alone in differentiation medium, 48 h; IGF-I at 10 ng/ml
C2C12 근육 세포 [3] = assay: C2C12 cell proliferation assay (Alamar Blue); type: cell-based, mouse; conditions: 2, 5, 50 and 100 ng/ml; 2000 cells/well; medium with IGF-I 2 ng/ml; 36 h; vs medium-only control
HSMM 세포 = assay: Human primary cell (HSMM) proliferation assay (BrdU incorporation); type: cell-based; conditions: 48 h; A5 at doses up to 10 ng/ml (P < 0.1); IGF-I alone at any dose

YQPPSTNKNTKSQARKGSTF [짧은 펩티드 2, Arg14→Ala, four C-terminal amino acids removed]
biological activity score (scale 0 to 3) (단핵성 근육모세포 (수반 세포)): 0

GSTFEEHK [펩티드 A8]
induction of C2C12 cell proliferation (BrdU incorporation) (C2C12 근육 세포 [1]): 세포 증식을 유도하였다

PSTNKNTKSQARKGSTFEEHK [짧은 펩티드 3, Arg14→Ala, three N-terminal amino acids removed]
biological activity score (scale 0 to 3) (단핵성 근육모세포 (수반 세포)): 0

YQPPSTNKNTKSQARKGSTFEEHK [펩티드 5]
biological activity score (scale 0 to 3) (단핵성 근육모세포 (수반 세포)): 2

TNKNTKSQARKGSTFEEHK [짧은 펩티드 4, Arg14→Ala, five N-terminal amino acids removed]
biological activity score (scale 0 to 3) (단핵성 근육모세포 (수반 세포)): 0

YQPPSTNKNTKSQAAKGSTFEEHK [펩티드 6]
biological activity score (scale 0 to 3) (단핵성 근육모세포 (수반 세포)): 0

IGF-I: IGF-I receptor binding domain encoded by exons 3 and 4, about 70 amino acids; from PeproTech or Sigma-Aldrich
increase in tetanic force of dystrophic muscle (mdx 마우스의 근이영양성 근육): ~5 %
effect on ejection fraction and percentage of viable myocardium after MI (경색된 양 심장): 더욱 작은 효과
protection against TBH-induced cell death (래트 기관형적 해마 배양물; TBH 3 h, CA1 region, 24 h): 72 %
time over which the neuroprotective effect was marked (래트 기관형적 해마 배양물; cell death assessed 24 h and 48 h after start): ≤ 24 시간
surviving CA1 neurons as % of control neuron number, side not stated (뇌 허혈의 게르빌루스쥐 모델): 15.8 %
surviving CA1 neurons, side not stated (뇌 허혈의 게르빌루스쥐 모델; n=5): 19.2 ± 7.3 개
desmin-positive cells as % of total (DAPI-positive) cells (정상 두개안면 (교근) 초대 배양물): 58.4±4.2 %
desmin-positive cells as % of total (DAPI-positive) cells (정상 하지 (사두근) 초대 배양물): 47.1±3.5 %
desmin-positive cells as % of total (DAPI-positive) cells [2]: 13.2±1.7 %
desmin-positive cells as % of total (DAPI-positive) cells (ALS 사지): 4.7±1.4 %
desmin-positive cells as % of total (DAPI-positive) cells (FSHD 사지): 14.1±1.6 %
effect on primary myoblast differentiation and myotube formation (CPK) (초대 인간 근육 세포 배양물): 근관 형성을 명백하게 자극한다
induction of C2C12 cell proliferation (Alamar Blue fluorescence) (C2C12 근육 세포 [3]): 통계학적으로 상이하였다
effect on HSMM proliferation (BrdU incorporation), used alone (HSMM 세포): 유의한 효과가 없었다

YQPPSTNKNTKSQRRKGSTFEEHK [펩티드 1, human Ec peptide variant with His instead of Arg at penultimate position; no PEG, no L-D conversion]
biological activity (in words) (단핵성 근육모세포 (수반 세포)): 활성을 거의 또는 전혀 나타내지 않았다

YQPPSTNKNTKSQARKGSTFEE [짧은 펩티드 1, Arg14→Ala, two C-terminal amino acids removed]
biological activity score (scale 0 to 3) (단핵성 근육모세포 (수반 세포)): 1

YQPPATNKNTKSQRRKGSTFEEHK [펩티드 2]
biological activity score (scale 0 to 3) (단핵성 근육모세포 (수반 세포)): 1

GSTFEEHK [DMGF]
induction of C2C12 cell proliferation (Alamar Blue fluorescence) (C2C12 근육 세포 [3]): 세포 증식을 유도하였다

GSTFEERK [펩티드 A2]
induction of C2C12 cell proliferation (BrdU incorporation) (C2C12 근육 세포 [1]): 세포 증식을 유도하였다

YQPPSTNKNTKSQRRKGATFEEHK [펩티드 4]
biological activity score (scale 0 to 3) (단핵성 근육모세포 (수반 세포)): 2

YQPPSTNKNTKAQRRKGSTFEEHK [펩티드 3]
biological activity score (scale 0 to 3) (단핵성 근육모세포 (수반 세포)): 3
